“And” between values parts separate entries of the source, which are not always exact repeats. Equal entries are not always repeated. Ends that are not written are not given here. A value given as a limit tells only on which side of the number the result lay.

In experiment [1] the test system is H3N2 influenza A/Cal/07/04. Set-up: species or system ferret. Conditions: in vivo; for ferrets with significant/severe respiratory distress (high fever, sneezing): 0.3 mg/kg.
For another experiment, the system named is influenza A/Cal/07/04. Set-up: species or system ferret. Conditions: in vivo; for ferrets with significant respiratory distress, high fever, sneezing / signs of influenza: 0.3 mg/kg.
The next experiment concerns influenza A virus. The experiment is described as follows: Plaque reduction / virus infectivity assays, influenza A virus (strain not specified). The format is cell-based. Conditions: for IC50: normal-sized plaques, read-out: potency in virus infectivity assays, normal-sized plaques. The method, then:
(§1) Using an immunoplaque assay with AVICEL® microcrystalline cellulose as the overlay (Matrosovich et al., 2006), plaques are detected by fixing the monolayers and staining with a specific antibody to the influenza virus nucleoprotein. In the peptide inhibition assay, peptide is preincubated with about 100 plaque forming units (pfu) of the virus for approximately 1 hour, then used to infect the monolayers. Two conditions were used for the incubation: (1) standard condition in which the peptide is included in the overlay at the same concentration that was used in the preincubation step, or (2) a condition in which the peptide is not included in the overlay.
(§2) F3 was evaluated for inhibition of multiple subtypes of influenza A viruses utilizing Madin-Darby Canine Kidney (“MDCK”) cell plaque assays performed using the A/WSN/33 (H1N1) and A/Udorn/72 (H3N2) subtypes of influenza A virus. Dilutions of 50 μM to 2.5 μM of F3 and the randomly scrambled control peptide (SEQ ID NO: 14) were used to evaluate the effects of these peptides on viral infectivity. Six dilutions of F3 and of the control peptide were tested against the H1N1 viral subtype; and another six dilutions of each peptide were tested against the H3N2 viral subtype.

Experiment [2] has as its system influenza A/PR/8/34 (H1N1). Kind of experiment: Inhibition of influenza virus-induced hemagglutination, A/PR/8/34. It is filed as cell-based. Conditions: for concentration inhibiting influenza virus-induced hemagglutination: optimal numbers of red blood cells and concentrations of virus. The method, then: Studies have been conducted with various influenza strains to better understand the mechanism of action of the peptides of the invention, e.g., to determine which step in the viral replication cycle is inhibited by F3, F1, and related influenza virus inhibitory peptides. At optimal numbers of red blood cells and concentrations of influenza A/PR/8/34 (H1N1), both F3 and F1 inhibited influenza virus-induced hemagglutination at about 10 μM concentrations.

The test system of another experiment is H1N1 influenza A virus. The experiment is described as follows: MDCK cell immunoplaque / plaque reduction assay, H1N1. It is filed as cell-based. Conditions: H1 influenza A virus subtype. The method, then: as §1, §2
(§3) At low nM concentrations (<10 nM) for condition (1), or low μM ([…]) for condition (2), the presence of “mini-plaques” were apparent.

A further experiment relates to H3N2 influenza A virus. The experiment is described as follows: MDCK cell immunoplaque / plaque reduction assay, H3N2. It is filed as cell-based. The note with it: H3 influenza A virus subtype. The method, then:
as §1, §2, §3

In experiment [3] the test system is influenza B (B/Shanghai/361/2002).
Experiment [4] has as its system influenza B (B/Shanghai/10/2003).
The subject of experiment [5] is recombinant H5N1 influenza virus.

With “SWLVNKIYLTDDEVEL (Scrambled version of residues 84-99 of influenza A/H3 HA2) [scrambled control peptide, reference compound]”, in experiment [1], the “ferrets displaying significant nasal discharge” value came out at 100%; the “ferrets presenting with lethargy” value worked out at 50%; the “ferrets with significant/severe respiratory distress (high fever, sneezing)” value is “all”. In the experiment on influenza A/Cal/07/04, the “lung presentation (gross pathology)” value is listed as “evidence of inflammation”; the “tissue pathology (histopathology)” value is reported as “infiltrations, bronchial inflammation, with bronchial exudates”; the “ferrets with significant respiratory distress, high fever, sneezing / signs of influenza” value is on record as “all 12”. Also, in the experiment with influenza A virus, the anti-viral properties result is “no discernable anti-viral properties”. In addition, the “inhibition of influenza A virus plaque formation” value in the experiment with influenza A virus (under any condition (peptide in overlay or not)) was “did not inhibit”. Besides, the inhibition of hemagglutination entry in [2] (at any concentration) is reported as “did not inhibit”.

As for VDDGFLDIWTYNAELLVLL [F1], the “antiviral activity in plaque assays” value in the experiment on H1N1 influenza A virus and in the experiment with H3N2 influenza A virus was “potent (picomolar)” throughout. In addition, in the experiment with influenza A virus, the IC50 was approximately 0.2 nM. Besides, in [2], the “concentration inhibiting influenza virus-induced hemagglutination” value is listed as “about 10 μM”.

With VEDTKIDLWSYNAELL-NH2 [F3], in experiment [1], the “clinical signs of influenza” value is “no clinical signs of influenza”; the “ferrets with very mild respiratory signs with slight fever” value is 2/5 and 1/6; the “ferrets with significant/severe respiratory distress (high fever, sneezing)” value is “none”. In experiment [3], this substance showed an IC50 of less than 5 nM. The IC50 in experiment [4] is less than 5 nM. Besides, in the experiment with influenza A/Cal/07/04, the “animals that developed mild signs of influenza” value is given as “two”; the “lung presentation (gross pathology)” value is recorded as “normal lung presentations”; the “pathological responses (respiratory distress, nasal discharge, activity), FIG. 6” value was “significantly reduced pathological responses”; the “reduction of peak titers of influenza virus in nasal washes” value is “greater than 2.0 log10”. Further, in the experiment with influenza A/Cal/07/04, the “reduction of peak titers of influenza virus in the lungs” value was “greater than 6.0 log10”; the “spread of the virus to the lower respiratory tract and to other organs” value was “effectively blocked”; the “tissue pathology (histopathology)” value is reported as “markedly reduced pathology”; the “ferrets with significant respiratory distress, high fever, sneezing / signs of influenza” value is “none”. In addition, the IC50 in [5] was less than 5 nM. Also, in the experiment with influenza A virus, the anti-viral properties entry is “potent anti-viral properties”, the “inhibition in plaque reduction assays” value is listed as “picomolar inhibition” and the IC50 is approximately 0.2 nM. Further, the “concentration at which mini-plaques were apparent” value with influenza A virus (condition (1): peptide included in the overlay) is listed as less than 10 nM. In experiment [2], the “concentration inhibiting influenza virus-induced hemagglutination” value was “about 10 μM”.

These data come from patent US9353157B2 (priority 2007, dated 2016).
